Laboratory results reported in patent US20030207830A1, “Mutant NDP kinases for antiviral nucleotide analog activation and therapeutic uses thereof” (priority 2002, published 2003).

How the values were obtained:
[1] = tested on: human pancreatic adenocarcinoma cell lines; settings: 4-fold overexpression of mitochondrial deoxyguanosine kinase; cited from earlier work
[2] = target: T1, Dictyostelium discoideum NDP kinase (Dd-NDPK) variant N119S, SEQ ID NO: 1 (Dictyostelium discoideum, UniProt P22887, N119S); assay: Pre-steady-state phosphotransfer, fluorescence stopped-flow; assay type: biochemical; settings: catalytic efficiency of phosphotransfer, N119S, pre-steady state
T1 construct: made in house
T1 sequence (P22887 whole entry N119S): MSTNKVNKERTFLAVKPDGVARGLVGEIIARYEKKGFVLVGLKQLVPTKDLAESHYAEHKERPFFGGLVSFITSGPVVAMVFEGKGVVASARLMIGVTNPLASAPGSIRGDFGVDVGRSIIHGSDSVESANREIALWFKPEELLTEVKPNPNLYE
Experimental: (§1) (A) Kinetics of reaction of phosphorylated Dictyostelium wild type and N119S NDP kinases by 100 μM Acyclovir diphosphate (Acy-DP). The phosphorylated enzyme was prepared with a stoichiometry #1 as described (Deville-Bonne 1996). The kinases were preincubated with ATP in excess in buffer T (50 mM Tris-HCl, pH 7.5, 5 mM MgCl2 and 75 mM KCl). The increase in fluorescence upon mixing the phospho-enzyme (1 μM, final concentration) with Acy-DP in buffer T at 20° C. was monitored with a stopped-flow. The solid lines represent the best fit of each curve to a monoexponential.
(§2) (B) Concentration dependence of the rate constant on Acy-DP concentation. The pseudo-first order rate constant for the reaction (kobs) was plotted against Acy-DP.
(§3) All numbers in italics have already been published (Schneider, 1998, 2000) The kinetic constants were measured at the pre-steady-state level using a fluorescence stopped-flow device. The binding constants were determined at equilibrium by recording the increase in fluorescence (Schneider, 2000). Values are the average of three independent determinations.
(§4) Wild type human NDPK-A and the mutants were expressed and purified according to Schneider et al., 2000, Mol Pharm. Recombinant wild type and mutant Dd-NDPK were obtained as described (Schneid, 1998a), except for N119Y NDP kinase which was partially purified by Q sepharose FF chromatography. Each protein was characterized by […] electrophoresis. The concentration of 17 kDa subunits of the enzyme was either determined by Bradford assay ([…]) or using an absorbance coefficient of ΔA^280=1.249 for a 1 mg/mL solution of human wild type and N115S NDPK-A, and =0.55 for wild type and mutant N119S, N119T Dd-NDP kinases, respectively.
(§5) As the diphosphate form of analogs were not always available, the triphosphate analogs were used to study phosphate transfer in reaction as in Scheme I. Experiments were performed with an Hi-Tech DX2 microvolume stopped-flow reaction (Schneider, 1998) at Aexc=296 nm (for Ado derivatives) or […] (for other nucleotides), 2 mm excitation slit and a 320 nm cutoff filter at the emission. After mixing NDPK (1 μM) and NTP or an analogTP (10-500 μM), the intrinsic protein fluorescence was recorded for 10-200 sec. In each experiment, 400 pairs of data were recorded, and the data from 3-4 identical experiments were averaged and fitted to a number of non-linear analytical equations using the software provided by Hi-Tech. All curves fitted to single exponentials.
(§6) The data were analyzed using the reaction scheme: [drawing 1]
(§7) In both the forward and the reverse reactions, the product concentration remains very low, thus the product binding can be neglected, and the observed single step could be attributed to the phosphotransfer (Schneider, 1998). The rate of this observed single step is: [formula]
(§8) and reaches a limiting value (k+2) at NTP saturation. Saturation could not be obtained with the concentrations of any NTP used here. Therefore, catalytic efficiencies of phosphorylation (CEphos=k+2/(k−1/k+1)=k+2/KS) were measured, which are equivalent to second order constants and allow a reliable comparison of a variety of NDP kinase substrates.

[3] = target: T2, Dictyostelium discoideum NDP kinase (Dd-NDPK), wild type (Dictyostelium discoideum, UniProt P22887); assay: as above; assay type: biochemical; settings: catalytic efficiency of phosphotransfer, wt
T2 construct: made in house
T2 sequence (P22887 whole entry): as the sequence (P22887 whole entry N119S) above, with S119N counted along it
Experimental: as §1, §2, §3, §4, §5, §6, §7, §8

[4] = target: T3, Dictyostelium NDP Kinase wt (Dictyostelium discoideum, UniProt P22887); assay: Pre-steady-state fluorescence stopped-flow phosphotransfer from nucleoside triphosphates, wild type Dd-NDPK; assay type: biochemical; settings: average of three determinations
T3 construct: made in house
T3 sequence (P22887 whole entry): as the sequence (P22887 whole entry N119S) above, with S119N counted along it
Experimental: (§9) The binding constants were determined at equilibrium by recording the increase in fluorescence (Schneider, 2000).
After mixing NDPK (1 μM) and NTP or an analogTP (10-500 μM), the intrinsic protein fluorescence was recorded for 10-200 sec. In each experiment, 400 pairs of data were recorded, and the data from 3-4 identical experiments were averaged and fitted to a number of non-linear analytical equations using the software provided by Hi-Tech.
as §6
The rate of this observed single step is: [formula]
(§10) and reaches a limiting value (k+2) at NTP saturation. […] Therefore, catalytic efficiencies of phosphorylation (CEphos=k+2/(k−1/k+1)=k+2/KS) were measured, which are equivalent to second order constants and allow a reliable comparison of a variety of NDP kinase substrates.

[5] = target: T4, Dictyostelium NDP Kinase N119S (Dictyostelium discoideum, UniProt P22887, N119S); assay: Pre-steady-state fluorescence stopped-flow phosphotransfer from nucleoside triphosphates, N119S Dd-NDPK; assay type: biochemical; settings: pre-steady state, stopped-flow; average of three determinations
T4 construct: made in house
T4 sequence (P22887 whole entry N119S): as the sequence (P22887 whole entry N119S) above
Experimental: as §3, §5, §6, §7, §8

[6] = target: T5, Dictyostelium discoideum NDP kinase inactive variant EI (H122G-F64W) (Dictyostelium discoideum, UniProt P22887, F64W/H122G); assay: biochemical; assay type: binding
T5 construct: made in house
T5 sequence (P22887 whole entry F64W/H122G): as the sequence (P22887 whole entry N119S) above, with F64W, S119N, H122G counted along it
Experimental: as §9
(§11) Analog binding affinity was measured using a variant of Dd-NDPK (EI) as described (Schneider, 2000). […] The mutation N119S was inserted in EI in order to measure the nucleotide affinity by fluorescence titration.
(§12) Altered bases as compared to the wild type sequence are underlined in bold. Sequences were checked by automatic sequencing. The mutant EI-N119S was obtained by mutation of the previously described F64W-H122G mutated NDP kinase (here called EI) (Schneider 2000).

[7] = target: T6, Dictyostelium discoideum NDP kinase inactive variant EI-N119S (H122G-F64W-N119S) (Dictyostelium discoideum, UniProt P22887, F64W/H122G/N119S); assay: biochemical; assay type: binding
T6 construct: made in house
T6 sequence (P22887 whole entry F64W/N119S/H122G): as the sequence (P22887 whole entry N119S) above, with F64W, H122G counted along it
Experimental: as §9, §11, §12

[8] = target: T7, Inactive-N119S Dd-NDPK (EI-N119S) (Dictyostelium discoideum, UniProt P22887, F64W/H122G/N119S); assay: Equilibrium fluorescence titration of nucleotide binding, inactive Dd-NDPK variant with N119S; settings: relative affinity of NTP for both enzymes
T7 construct: made in house
T7 sequence (P22887 whole entry F64W/N119S/H122G): as the sequence (P22887 whole entry N119S) above, with F64W, H122G counted along it
Experimental: as §3
In contrast to what is observed with natural nucleotides, the Ser mutation specifically improves the catalytic efficiency with nucleotides analogs as shown in Table I; ddGTPs and AZT-TP react, respectively, 1.5 and 4 times faster with the N119S enzyme. […] Analog binding affinity was measured using a variant of Dd-NDPK (EI) as described (Schneider, 2000). This mutant (H122G-F64W) lacks the catalytic histidine, and a tryptophan replaces the phenylalanine stacking on the base in the active site (Schneider, 2000). The mutation N119S was inserted in EI in order to measure the nucleotide affinity by fluorescence titration. The Ser contribution to the binding was evaluated from the relative affinity of NTP for both enzymes (Table I).
as §12, with “for N119S, N119T and N119Y mutations, respectively. Altered” for “Altered”

[9] = target: T8, human NDP kinase A (NDPK-A, nm23-H1), wild type (Homo sapiens, UniProt P15531); assay: Pre-steady-state phosphotransfer, fluorescence stopped-flow; assay type: biochemical; settings: catalytic efficiency of phosphotransfer, NDPK-A, pre-steady state
T8 construct: made in house
T8 sequence (P15531 whole entry): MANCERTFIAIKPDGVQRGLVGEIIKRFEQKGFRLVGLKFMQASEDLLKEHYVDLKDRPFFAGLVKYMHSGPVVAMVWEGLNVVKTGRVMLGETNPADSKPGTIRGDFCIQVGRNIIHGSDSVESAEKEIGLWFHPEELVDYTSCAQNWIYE
Experimental: (§13) FIG. 3 depicts the catalytic efficiency of NDPK-A and mutants for nucleoside analogs. The rates of phosphorylation of pure recombinant NDP kinases (1 μM) were measured at the pre-steady state in a fluorescence stopped-flow with d4T-TP (10 to 80 μM). The catalytic efficiency (expressed in M^−1s^−1) was determined from the variation of the rate as a function of analog as shown in FIG. 2 (▾, NDPK-A, ♦ L55H, ● N115S, ▪ L55H-N115S).
(§14) The activity assays were performed at the pre-steady state level.
as §4
as §5, with “Hi-Tech.” for “Hi-Tech. All curves fitted to single exponentials.”
as §6, §7, §10

[10] = target: T9, human NDP kinase A (NDPK-A) variant L55H-N115S, SEQ ID NO: 3 (Homo sapiens, UniProt P15531, L55H/N115S); assay: as above; assay type: biochemical; settings: L55H-N115S, pre-steady state
T9 construct: made in house; host or cells: E. coli
T9 sequence (P15531 whole entry L55H/N115S): as the sequence (P15531 whole entry) above, with L55H, N115S counted along it
Experimental: as §13, §14
(§15) R, the specificity change, is the ratio of the catalytic efficiencies (for analog versus natural nucleotide) of the mutant compared to the wild type enzyme.
as §4
as §5, with “Hi-Tech.” for “Hi-Tech. All curves fitted to single exponentials.”
as §6, §7, §10

[11] = target: T10, human NDP kinase A (NDPK-A) variant N115S, SEQ ID NO: 2 (Homo sapiens, UniProt P15531, N115S); assay: as above; assay type: biochemical; settings: N115S, pre-steady state
T10 construct: made in house; host or cells: E. coli
T10 sequence (P15531 whole entry N115S): as the sequence (P15531 whole entry) above, with N115S counted along it
Experimental: as §13, §14, §15, §4
as §5, with “Hi-Tech.” for “Hi-Tech. All curves fitted to single exponentials.”
as §6, §7, §10

[12] = target: T11, human NDP kinase A (NDPK-A) variant L55H (Homo sapiens, UniProt P15531, L55H); assay: as above; assay type: biochemical; settings: L55H, pre-steady state
T11 construct: made in house; host or cells: E. coli
T11 sequence (P15531 whole entry L55H): as the sequence (P15531 whole entry) above, with L55H counted along it
Experimental: as §13, §14, §15, §4
as §5, with “Hi-Tech.” for “Hi-Tech. All curves fitted to single exponentials.”
as §6, §7, §10

[13] = Dd-NDPK mutant; cited from earlier work
[14] = Reactivity of Dd-NDPK Asn 119 mutants for nucleotide analogs; assay type: biochemical; settings: Dd-NDPK mutant versus wild type
From the text: First, by site-directed mutagenesis, a limited set of amino acid substitutions (Ser, Thr, or Tyr) at the position of Asn 119 were introduced into the active site of Dd-NDPK. The three mutant proteins were expressed and purified to homogeneity, except N119Y, which was found unstable and poorly active (0.05% of wild type activity).

[15] = catalytic efficiency of phosphotransfer

Q: For `Nc1nc(Cl)nc2c1ncn2[C@H]1C[C@H](O)[C@@H](CO)O1` [CdA], which sensitivity of cells [1] is on record?
A: Its sensitivity of cells is “enhanced sensitivity”.

Q: With `Nc1nc2c(ncn2[C@@H]2O[C@H](COP(=O)(O)OP(=O)(O)OP(=O)(O)O)[C@@H](O)[C@H]2O)c(=O)[nH]1` [GTP] as the molecule, how does the k2/Ks [2] read?
A: Its k2/Ks is 700000 M⁻¹ s⁻¹.

Q: And the k2/Ks [3]?
A: Its k2/Ks is 8e+06 M⁻¹ s⁻¹.

Q: And the “k2/Ks wt (catalytic efficiency of phosphotransfer)” value [4]?
A: The value was 8e+06 M⁻¹ s⁻¹.

Q: And the “k2/Ks N119S (catalytic efficiency of phosphotransfer)” value [5]?
A: Its value is 700000 M⁻¹ s⁻¹.

Q: What about the Kd [6] of the same molecule?
A: Its Kd is 150 nM.

Q: What about the Kd [7] of the same molecule?
A: Its Kd is 1100 nM.

Q: What does the source list for `Nc1nc2c(ncn2COCCOP(=O)(O)OP(=O)(O)OP(=O)(O)O)c(=O)[nH]1` [acyclovirTP, acyclovir-TP]?
A: k2/Ks N119S (catalytic efficiency of phosphotransfer) [5]: 1650 M⁻¹ s⁻¹; factor by which Ser 119 reinforces affinity (EI-N119S versus EI) [8]: 10 fold

Q: For `Nc1nc2c(ncn2[C@@H]2O[C@H](CO)[C@@H](O)[C@@H]2O)c(=O)[nH]1` [araG], which sensitivity of cells [1] is on record?
A: The sensitivity of cells was “enhanced sensitivity”.

Q: With `Nc1nc2c(ncn2[C@@H]2O[C@H](CO)[C@@H](O)C2(F)F)c(=O)[nH]1` [dFdG] as the molecule, how does the sensitivity of cells [1] read?
A: Its sensitivity of cells is “enhanced sensitivity”.

Q: What does the source list for `Cc1cn([C@H]2C[C@H](O)[C@@H](COP(=O)(O)OP(=O)(O)OP(=O)(O)O)O2)c(=O)[nH]c1=O` [dTTP]?
A: k2/Ks [2]: 430000 M⁻¹ s⁻¹; k2/Ks [3]: 5.7e+06 M⁻¹ s⁻¹; k2/Ks wt (catalytic efficiency of phosphotransfer) [4]: 5.7e+06 M⁻¹ s⁻¹; k2/Ks N119S (catalytic efficiency of phosphotransfer) [5]: 430000 M⁻¹ s⁻¹; k2/Ks [9]: 1.2e+06 M⁻¹ s⁻¹; factor of rate versus wild type NDPK-A [10]: 0.33; k2/Ks [10, 15]: 450000 M⁻¹ s⁻¹; factor of rate versus wild type NDPK-A [11]: 0.08; k2/Ks [11, 15]: 100000 M⁻¹ s⁻¹; factor of rate versus wild type NDPK-A [12]: 1.8; k2/Ks [12, 15]: 2e+06 M⁻¹ s⁻¹; Kd [6]: 1200 nM; Kd [7]: 5200 nM

B1: K16A: Dd-NDPK with Lys 16 mutated into Ala (Schneider 2001) (protein, UniProt P22887 1-155, looked up, variant K16A)
Nucleoside diphosphate …: MSTNKVNKERTFLAVAPDGVARGLVGEIIARYEKKGFVLVGLKQLVPTKDLAESHYAEHKERPFFGGLVSFITSGPVVAMVFEGKGVVASARLMIGVTNPLASAPGSIRGDFGVDVGRNIIHGSDSVESANREIALWFKPEELLTEVKPNPNLYE
Q: With B1 as the molecule, how does the “factor of decrease of catalytic constant of phosphotransfer” value [13] read?
A: Its value is 100.

B2: N119A: Dd-NDPK with Asn 119 mutated into Ala (Schneider 2001) (protein, UniProt P22887 1-155, looked up, variant N119A)
Nucleoside diphosphate …: MSTNKVNKERTFLAVKPDGVARGLVGEIIARYEKKGFVLVGLKQLVPTKDLAESHYAEHKERPFFGGLVSFITSGPVVAMVFEGKGVVASARLMIGVTNPLASAPGSIRGDFGVDVGRAIIHGSDSVESANREIALWFKPEELLTEVKPNPNLYE
Q: With B2 as the molecule, how does the “effect of mutation on kinetic parameters of the enzyme” value [13] read?
A: Its value is “did not affect significantly”.

B3: N119T: Dd-NDPK with Thr at the position of Asn 119 (protein, UniProt P22887 1-155, looked up, variant N119T)
Nucleoside diphosphate …: MSTNKVNKERTFLAVKPDGVARGLVGEIIARYEKKGFVLVGLKQLVPTKDLAESHYAEHKERPFFGGLVSFITSGPVVAMVFEGKGVVASARLMIGVTNPLASAPGSIRGDFGVDVGRTIIHGSDSVESANREIALWFKPEELLTEVKPNPNLYE
Q: For B3, which “enzyme reactivity for analogs” value [14] is on record?
A: The value was “without effect”.
